Source: patent US20100029657A1, “Bridged, Bicyclic Heterocyclic or Spiro Bicyclic Heterocyclic Derivatives of Pyrazolo[1, 5-A]Pyrimidines, Methods for Preparation and Uses Thereof” (Wyeth, priority 2008, published 2010)

Target: T1, Flag/GST-tagged recombinant human B-Raf (Homo sapiens, UniProt P15056)
T1 construct: Flag; GST; made in house; host or cells: Sf9 insect cells (B-Raf); E. coli (MEK1-GST)
Assay: B-Raf kinase assay (phosphorylation of GST-MEK1, phospho-MEK1 antibody/Europium detection)
Type: biochemical
Conditions: B-Raf IC50 Data for compounds of Formula A; read-out: Mean IC50
How it was run: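 Active B-Raf (0.2 nM) phosphorylates GST-MEK1 in 20 mM MOPS pH 7.2 buffer with DTT, vanadate and 0.01% Triton X-100. The Mg/ATP cocktail (200 μM ATP, 40 mM MgCl2) is added, then incubation runs 45 min at RT. Product is captured on anti-GST plates and detected by anti-phospho-MEK1 plus Europium-anti-rabbit fluorescence, giving % inhibition per concentration.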

T1 sequence (P15056 whole entry): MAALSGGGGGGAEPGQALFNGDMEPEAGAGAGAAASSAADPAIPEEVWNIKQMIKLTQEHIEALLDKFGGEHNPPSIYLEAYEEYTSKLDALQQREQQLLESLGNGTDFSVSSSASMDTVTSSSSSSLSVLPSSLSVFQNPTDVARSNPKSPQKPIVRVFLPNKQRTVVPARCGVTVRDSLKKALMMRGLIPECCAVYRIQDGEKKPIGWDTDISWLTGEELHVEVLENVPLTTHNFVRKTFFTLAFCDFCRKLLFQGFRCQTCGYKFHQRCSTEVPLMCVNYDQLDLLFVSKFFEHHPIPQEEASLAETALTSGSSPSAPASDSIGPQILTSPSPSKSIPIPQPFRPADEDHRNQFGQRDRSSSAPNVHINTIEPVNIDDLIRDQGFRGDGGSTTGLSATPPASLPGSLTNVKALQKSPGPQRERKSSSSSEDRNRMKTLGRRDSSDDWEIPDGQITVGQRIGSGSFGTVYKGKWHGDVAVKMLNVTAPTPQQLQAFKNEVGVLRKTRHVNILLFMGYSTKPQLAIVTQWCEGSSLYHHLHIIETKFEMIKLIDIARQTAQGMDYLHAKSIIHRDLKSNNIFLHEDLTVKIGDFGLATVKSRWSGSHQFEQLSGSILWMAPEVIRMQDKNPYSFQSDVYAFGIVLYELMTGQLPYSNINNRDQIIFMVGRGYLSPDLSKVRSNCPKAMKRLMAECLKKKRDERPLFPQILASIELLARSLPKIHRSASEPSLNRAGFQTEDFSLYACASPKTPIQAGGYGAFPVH

`Fc1cc(N2C[C@@H]3C[C@H]2CN3)cc(F)c1-c1ccnc2c(-c3ccc(F)c4[nH]ncc34)c(-c3ccncc3)nn12` [Example 109, 7-{4-[(1S,4S)-2,5-Diazabicyclo[2.2.1]hept-2-yl]-2,6-difluorophenyl}-3-(7-fluoro-1H-indazol-4-yl)-2-pyridin-4-yl pyrazolo[1,5-a]pyrimidine] and `Fc1cc(N2C[C@@H]3C[C@H]2CN3)ccc1-c1ccnc2c(-c3cccc4[nH]ncc34)c(-c3ccncc3)nn12` [Example 52, 7-(4-((1S,4S)-2,5-Diazabicyclo[2.2.1]heptan-2-yl)-2-fluorophenyl)-3-(1H-indazol-4-yl)-2-(pyridin-4-yl)pyrazolo[1,5-a]pyrimidine] cannot be ordered by IC50: under 0.3 nM for the first, under 0.3 nM for the second.

First: Oc1cccc(-c2c(-c3ccncc3)nn3c(-c4ccc(NCC56CCN(CC5)CC6)nc4)ccnc23)c1 [Example 1, 3-(7-{6-[(1-Azabicyclo[2.2.2]oct-4-ylmethyl)amino]pyridin-3-yl}-2-pyridin-4-ylpyrazolo[1,5-a]pyrimidin-3-yl)phenol]
Second: Oc1cccc(-c2c(-c3ccncc3)nn3c(NCC45CCN(CC4)CC5)ccnc23)c1 [Example 6]
The IC50 of the first is 28-fold lower: 2 nM for the first, 57 nM for the second. The first is the more potent here.

Compared with `CCOC(=O)N1C2CCC1CC(c1ccnc3c(-c4ccc5cc[nH]c5c4)c(-c4ccncc4)nn13)C2` (stereo not shown) [Example 85, Ethyl 3-[3-(1H-indol-6-yl)-2-pyridin-4-ylpyrazolo[1,5-a]pyrimidin-7-yl]-8-azabicyclo[3.2.1]octane-8-carboxylate], `CCN1C2CCC1CC(c1ccnc3c(-c4ccnc(O)c4)c(-c4ccncc4)nn13)C2` (stereo not shown) [Example 21, 4-(7-(8-Ethyl-8-azabicyclo[3.2.1]octan-3-yl)-2-(pyridin-4-yl)pyrazolo[1,5-a]pyrimidin-3-yl)pyridin-2-ol] is higher in IC50: 36 nM for the first, over 1000 nM for the second. The first is the more potent here.

Going from `COc1cc(-c2c(-c3ccncc3)nn3c(-c4ccc(F)cc4N4C[C@@H]5C[C@H]4CN5C(=O)OC(C)(C)C)ccnc23)ccc1Cl` [Example 48, (1S,4S)-tert-Butyl 5-(2-(3-(4-chloro-3-methoxyphenyl)-2-(pyridin-4-yl)pyrazolo[1,5-a]pyrimidin-7-yl)-5-fluorophenyl)-2,5-diazabicyclo[2.2.1]-heptane-2-carboxylate] to `CC(C)(C)OC(=O)N1C[C@@H]2C[C@H]1CN2c1ccc(-c2ccnc3c(-c4ccc(F)c5[nH]ncc45)c(-c4ccncc4)nn23)cc1` [Example 102, tert-Butyl(1S,4S)-5-{4-[3-(7-fluoro-1H-indazol-4-yl)-2-pyridin-4-ylpyrazolo[1,5-a]pyrimidin-7-yl]phenyl}-2,5-diazabicyclo[2.2.1]heptane-2-carboxylate], the IC50 falls from over 1000 nM to 2.04 nM. The second is the more potent here.

Going from `c1cc(-c2c(-c3ccncc3)nn3c2nccc3[C@H]2CC[C@H](N3C4CCC3COC4)CC2)c2cn[nH]c2c1` (relative stereo) [Example 151, 3-(1H-indazol-4-yl)-7-[trans-4-(3-oxa-8-azabicyclo[3.2.1]oct-8-yl)cyclohexyl]-2-pyridin-4-ylpyrazolo[1,5-a]pyrimidine] to `c1cc(-c2c(-c3ccncc3)nn3c2nccc3[C@H]2CC[C@H](N3C[C@@H]4C[C@H]3CN4)CC2)c2cn[nH]c2c1` [Example 156, 7-{trans-4-[(1S,4S)-2,5-diazabicyclo[2.2.1]hept-2-yl]cyclohexyl}-3-(1H-indazol-4-yl)-2-pyridin-4-ylpyrazolo[1,5-a]pyrimidine], the IC50 falls from 6.4 nM to 0.6 nM (11-fold). The second is the more potent here.

Compared with `Fc1ccc(-c2c(-c3ccncc3)nn3c2nccc3[C@H]2CC[C@@H](N3CC4CCC(C3)O4)CC2)c2cn[nH]c12` (relative stereo) [Example 179, 3-(7-fluoro-1H-indazol-4-yl)-7-[cis-4-(8-oxa-3-azabicyclo[3.2.1]oct-3-yl)cyclohexyl]-2-pyridin-4-ylpyrazolo[1,5-a]pyrimidine], `c1cc(-c2c(-c3ccncc3)nn3c(C4CCC5(CC4)OCCO5)ccnc23)c2cn[nH]c2c1` [Example 142, 7-(1,4-dioxaspiro[4.5]dec-8-yl)-3-(1H-indazol-4-yl)-2-pyridin-4-ylpyrazolo[1,5-a]pyrimidine] is 3.9-fold lower in IC50: 8.6 nM for the first, 2.2 nM for the second.

Work on `CN1C[C@@H]2C[C@H]1CN2c1ccc(-c2ccnc3c(-c4cccc5[nH]ncc45)c(-c4ccncc4)nn23)c(F)c1` [Example 94, 7-{2-Fluoro-4-[(1S,4S)-5-methyl-2,5-diazabicyclo[2.2.1]hept-2-yl]phenyl}-3-(1H-indazol-4-yl)-2-pyridin-4-yl pyrazolo[1,5-a]pyrimidine] yielded an IC50 of 0.1 nM.
